Source: patent US8471005B2 (Cephalon, Inc., priority 2008, dated 2013)
Like-named read-outs stand apart in the source and are kept apart here.

What was measured:
[1] = biological target: T1, ALK (Homo sapiens, UniProt Q9UM73); assay: ALK Kinase Assay (ELISA/TRF, PLC-γ substrate); type: biochemical; conditions: read-out: ALK Potency
T1 construct: host or cells: baculovirus expression system
In short: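 PLC-γ coat 10 μg/mL in TBS; ALK 30 ng/ml added to start; 37° C, 15 min; Eu-N1 PT66 antibody detection (TRF). IC50: % inhibition vs log10 [cpd], variable-slope sigmoidal fit.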

[2] = biological target: T2, JAK2 (Homo sapiens, UniProt O60674); assay: Recombinant Human JAK2 Kinase Assay (TRF); type: biochemical; conditions: read-out: JAK2 Potency
T2 construct: host or cells: baculovirus expression system
In short: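 Kinase activity of baculovirus-expressed JAK2 is followed on a surface-immobilised biotinylated peptide, with the reaction run for 20 min at room temperature in buffer containing 0.2 μM ATP and manganese. Phosphorylation is read with Eu-N1 PY100 antibody.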

[3] = ALK kinase inhibition, 1 μM ATP
[4] = JAK2 kinase inhibition, 0.2 μM ATP

T1 sequence (Q9UM73 19-1620): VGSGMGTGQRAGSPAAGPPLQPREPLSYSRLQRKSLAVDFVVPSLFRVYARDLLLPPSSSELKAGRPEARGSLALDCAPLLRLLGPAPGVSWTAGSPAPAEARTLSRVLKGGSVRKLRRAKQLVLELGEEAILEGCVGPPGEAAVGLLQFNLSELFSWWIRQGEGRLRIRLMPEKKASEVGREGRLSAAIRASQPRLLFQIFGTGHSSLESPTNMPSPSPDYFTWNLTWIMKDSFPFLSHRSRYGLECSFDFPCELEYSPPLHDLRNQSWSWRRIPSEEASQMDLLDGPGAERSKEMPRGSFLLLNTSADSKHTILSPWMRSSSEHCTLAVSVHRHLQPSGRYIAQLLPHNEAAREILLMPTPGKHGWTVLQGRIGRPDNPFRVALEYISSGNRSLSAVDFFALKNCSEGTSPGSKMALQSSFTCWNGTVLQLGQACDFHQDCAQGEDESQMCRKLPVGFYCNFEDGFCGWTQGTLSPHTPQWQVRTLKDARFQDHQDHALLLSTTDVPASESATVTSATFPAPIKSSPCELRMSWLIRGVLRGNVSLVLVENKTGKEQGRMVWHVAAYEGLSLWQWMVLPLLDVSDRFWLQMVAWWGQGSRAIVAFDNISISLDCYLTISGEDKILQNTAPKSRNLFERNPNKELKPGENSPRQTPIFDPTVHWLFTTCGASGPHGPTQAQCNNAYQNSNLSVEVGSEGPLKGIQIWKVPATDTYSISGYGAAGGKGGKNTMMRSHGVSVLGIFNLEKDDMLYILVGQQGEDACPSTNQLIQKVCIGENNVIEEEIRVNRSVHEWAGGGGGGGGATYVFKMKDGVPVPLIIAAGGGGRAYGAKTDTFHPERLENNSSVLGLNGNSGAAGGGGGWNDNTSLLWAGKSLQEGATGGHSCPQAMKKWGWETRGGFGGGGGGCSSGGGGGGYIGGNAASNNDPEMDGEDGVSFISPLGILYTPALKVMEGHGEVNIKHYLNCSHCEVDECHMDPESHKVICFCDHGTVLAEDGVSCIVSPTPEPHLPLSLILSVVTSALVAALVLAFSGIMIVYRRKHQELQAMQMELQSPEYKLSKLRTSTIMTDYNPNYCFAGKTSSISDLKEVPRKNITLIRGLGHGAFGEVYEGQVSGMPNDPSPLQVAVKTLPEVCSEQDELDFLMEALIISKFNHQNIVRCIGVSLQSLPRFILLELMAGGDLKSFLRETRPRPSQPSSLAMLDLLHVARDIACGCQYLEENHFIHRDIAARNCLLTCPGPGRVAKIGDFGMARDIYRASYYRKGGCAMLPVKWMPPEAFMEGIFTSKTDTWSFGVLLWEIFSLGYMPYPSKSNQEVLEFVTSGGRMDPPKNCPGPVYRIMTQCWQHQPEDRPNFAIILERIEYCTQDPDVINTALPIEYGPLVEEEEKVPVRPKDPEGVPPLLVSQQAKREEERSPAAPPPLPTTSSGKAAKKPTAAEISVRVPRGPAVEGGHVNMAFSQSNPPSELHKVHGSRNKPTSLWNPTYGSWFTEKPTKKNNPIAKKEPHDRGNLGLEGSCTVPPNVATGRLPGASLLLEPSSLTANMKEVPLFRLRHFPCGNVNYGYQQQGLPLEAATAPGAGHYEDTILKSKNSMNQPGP
T2 sequence (O60674 whole entry): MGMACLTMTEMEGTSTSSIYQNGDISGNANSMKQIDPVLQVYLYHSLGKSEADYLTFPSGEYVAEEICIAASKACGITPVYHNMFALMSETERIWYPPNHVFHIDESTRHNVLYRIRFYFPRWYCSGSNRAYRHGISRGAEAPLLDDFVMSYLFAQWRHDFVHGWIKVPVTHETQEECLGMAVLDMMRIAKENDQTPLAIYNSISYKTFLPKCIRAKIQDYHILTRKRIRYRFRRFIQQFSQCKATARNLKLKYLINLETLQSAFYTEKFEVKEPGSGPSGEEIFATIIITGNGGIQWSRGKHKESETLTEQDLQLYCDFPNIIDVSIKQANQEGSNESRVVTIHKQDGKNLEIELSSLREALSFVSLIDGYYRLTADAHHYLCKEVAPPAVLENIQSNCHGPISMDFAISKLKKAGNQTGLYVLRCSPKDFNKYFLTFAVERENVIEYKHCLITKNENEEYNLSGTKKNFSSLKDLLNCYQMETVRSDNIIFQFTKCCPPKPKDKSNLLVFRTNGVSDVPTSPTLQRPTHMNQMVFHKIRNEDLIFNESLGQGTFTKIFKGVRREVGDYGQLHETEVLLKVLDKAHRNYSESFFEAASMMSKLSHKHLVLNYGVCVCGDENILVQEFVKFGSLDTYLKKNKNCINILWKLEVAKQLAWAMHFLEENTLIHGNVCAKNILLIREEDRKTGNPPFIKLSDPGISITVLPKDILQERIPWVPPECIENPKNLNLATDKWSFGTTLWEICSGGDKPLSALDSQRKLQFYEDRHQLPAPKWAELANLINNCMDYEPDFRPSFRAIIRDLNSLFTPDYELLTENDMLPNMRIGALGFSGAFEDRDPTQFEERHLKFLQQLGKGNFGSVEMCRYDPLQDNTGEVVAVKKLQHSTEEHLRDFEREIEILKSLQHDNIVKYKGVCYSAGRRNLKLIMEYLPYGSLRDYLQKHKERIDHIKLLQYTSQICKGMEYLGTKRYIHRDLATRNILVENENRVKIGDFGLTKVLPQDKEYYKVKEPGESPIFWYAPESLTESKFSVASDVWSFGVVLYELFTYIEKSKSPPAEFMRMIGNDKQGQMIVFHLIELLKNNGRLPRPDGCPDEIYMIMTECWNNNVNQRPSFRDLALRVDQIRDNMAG

Row | Compound | IC50 ([1]; ALK Kinase Inhibition) [nM] | IC50 ([2]; JAK2 Kinase Inhibition) [nM] | IC50 [1, 3] [nM] | IC50 [2, 4] [nM]
1 | COc1cc(N2CCC(F)(F)CC2)ccc1Nc1ncc2ccc(-c3ccccc3N(C)S(C)(=O)=O)n2n1 [Example 1469, N-(2-{2-[4-(4,4-Difluoro-piperidin-1-yl)-2-methoxy-phenylamino]-pyrrolo[2,1-f][1,2,4]triazin-7-yl}-phenyl)-N-methyl-methanesulfonamide] | < 100 | 100 to 1000 |  | 
2 | COc1cc(N2CCC(N3CCOCC3)CC2)ccc1Nc1ncc2ccc(-c3ccccc3C(F)(F)F)n2n1 [Example 1464, [2-Methoxy-4-(4-morpholin-4-yl-piperidin-1-yl)-phenyl]-[7-(2-trifluoromethyl-phenyl)-pyrrolo[2,1-f][1,2,4]triazin-2-yl]-amine] | < 100 | 100 to 1000 |  | 
3 | Cc1nc2ccc(Nc3ncc4ccc(-c5cccc(S(=O)(=O)NC(C)(C)C)c5)n4n3)cc2n1C [Example 1331, N-tert-Butyl-3-[2-(2,3-dimethyl-3H-benzimidazol-5-ylamino)-pyrrolo[2,1-f][1,2,4]triazin-7-yl]-benzenesulfonamide] |  |  | 100 to 1000 | < 100
4 | CS(=O)(=O)Nc1cccc(-c2ccc3cnc(Nc4ccc(N5CCN(CCO)CC5)cc4)nn23)c1 [Example 380, N-[3-(2-{4-[4-(2-Hydroxy-ethyl)-piperazin-1-yl]-phenylamino}-pyrrolo[2,1-f][1,2,4]triazin-7-yl)-phenyl]-methanesulfonamide] | < 100 | < 100 |  | 
5 | COc1ccc(-c2ccc3cnc(Nc4ccc5c(c4)N(C(C)=O)CCCC5)nn23)cn1 [Example 631, 1-{8-[7-(6-Methoxy-pyridin-3-yl)-pyrrolo[2,1-f][1,2,4]triazin-2-ylamino]-2,3,4,5-tetrahydro-benzo[b]azepin-1-yl}ethanone] |  |  | > 10000 | < 100
6 | CC(=O)Nc1cccc(Nc2ncc3ccc(-c4cccc(CN(C)S(C)(=O)=O)c4)n3n2)c1 [Example 1053, N-[3-(7-{3-[(Methanesulfonyl-methyl-amino)-methyl]-phenyl}-pyrrolo[2,1-f][1,2,4]triazin-2-ylamino)-phenyl]-acetamide] |  |  | 1000 to 10000 | < 100
7 | O=C(c1ccc(-c2ccc3cnc(Nc4ccc(N5CCOCC5)cc4)nn23)cc1)N1CCOCC1 [Example 14, Morpholin-4-yl-{4-[2-(4-morpholin-4-yl-phenylamino)-pyrrolo[2,1-f][1,2,4]triazin-7-yl]-phenyl}-methanone] | 100 to 1000 | < 100 |  | 
8 | c1cncc(-c2ccc3cnc(Nc4ccc(N5CCC(N6CCOCC6)CC5)cc4)nn23)c1 [Example 337, [4-(4-Morpholin-4-yl-piperidin-1-yl)-phenyl]-(7-pyridin-3-yl-pyrrolo[2,1-f][1,2,4]triazin-2-yl)-amine] | 100 to 1000 | < 100 |  | 
9 | CC(C)(C)NS(=O)(=O)c1cccc(-c2ccc3cnc(Nc4ccc5c(cnn5CCN5CCOCC5)c4)nn23)c1 [Example 1323, N-tert-Butyl-3-{2-[1-(2-morpholin-4-yl-ethyl)-1H-indazol-5-ylamino]-pyrrolo[2,1-f][1,2,4]triazin-7-yl}-benzenesulfonamide] |  |  | 100 to 1000 | < 100
10 | Oc1ccc(-c2ccc3cnc(Nc4ccc(N5CCOCC5)cc4)nn23)cn1 [Example 331, 5-[2-(4-Morpholin-4-yl-phenylamino)-pyrrolo[2,1-f][1,2,4]triazin-7-yl]-pyridin-2-ol] | 1000 to 10000 | < 100 |  | 
11 | COc1ccccc1NCc1ccc2cnc(Nc3ccc(N4CCN(C)CC4)cc3)nn12 [Example 365, {7-[(2-Methoxy-phenylamino)-methyl]-pyrrolo[2,1-f][1,2,4]triazin-2-yl}-[4-(4-methyl-piperazin-1-yl)-phenyl]-amine] | 1000 to 10000 | < 100 |  | 
12 | COc1cc2c(cc1Nc1ncc3ccc(-c4cccc(S(=O)(=O)NC(C)(C)C)c4)n3n1)CCN(CCO)CC2 [Example 699] |  |  | < 100 | 100 to 1000
13 | CN1C(=O)Cc2cc(Nc3ncc4ccc(-c5cccc(NS(C)(=O)=O)c5)n4n3)ccc21 [Example 361, N-{3-[2-(1-Methyl-2-oxo-2,3-dihydro-1H-indol-5-ylamino)-pyrrolo[2,1-f][1,2,4]triazin-7-yl]-phenyl}-methanesulfonamide] | 100 to 1000 | < 100 |  | 
14 | CC(C)(C)NS(=O)(=O)c1cccc(-c2ccc3cnc(Nc4ccc(C(N)=O)cc4)nn23)c1 [Example 1399, 4-[7-(3-tert-Butylsulfamoyl-phenyl)-pyrrolo[2,1-f][1,2,4]triazin-2-ylamino]-benzamide] | 1000 to 10000 | < 100 |  | 
15 | COc1ccc(Cl)cc1-c1ccc2cnc(Nc3ccc(N4CCCC(N5CCN(C)CC5)C4)cc3)nn12 (stereo not shown) [Example 349, [7-(5-Chloro-2-methoxy-phenyl)-pyrrolo[2,1-f][1,2,4]triazin-2-yl]-{4-[3-(4-methyl-piperazin-1-yl)-piperidin-1-yl]-phenyl}-amine] | < 100 | < 100 |  | 
16 | CCN1CCOC(c2ccc(Nc3ncc4ccc(-c5cccc(S(=O)(=O)NC(C)(C)C)c5)n4n3)cc2)C1 (stereo not shown) [Example 653, N-tert-Butyl-3-{2-[4-(4-ethyl-morpholin-2-yl)-phenylamino]-pyrrolo[2,1-f][1,2,4]triazin-7-yl}benzenesulfonamide] |  |  | 100 to 1000 | < 100
17 | CN(c1ccccc1-c1ccc2cnc(Nc3ccc(Cn4ccnc4)cc3)nn12)S(C)(=O)=O [Example 621, N-{2-[2-(4-Imidazol-1-ylmethylphenylamino)-pyrrolo[2,1-f][1,2,4]triazin-7-yl]phenyl}-N-methyl-methanesulfonamide] |  |  | < 100 | < 100
18 | COc1cc([C@@H]2CCNC[C@@H]2O)ccc1Nc1ncc2ccc(-c3ccccc3N(C)S(C)(=O)=O)n2n1 (racemic) [Example 841, (±)-N-(2-{2-[4-((3R,4S)-3-Hydroxy-piperidin-4-yl)-2-methoxy-phenylamino]-pyrrolo[2,1-f][1,2,4]triazin-7-yl}-phenyl)-N-methyl-methanesulfonamide] |  |  | < 100 | 1000 to 10000
19 | CCN(c1ccccc1-c1ccc2cnc(Nc3ccc(N4CCC(N5CCOCC5)CC4)cc3OC)nn12)S(C)(=O)=O [Example 1460, N-Ethyl-N-(2-{2-[2-methoxy-4-(4-morpholin-4-yl-piperidin-1-yl)-phenylamino]-pyrrolo[2,1-f][1,2,4]triazin-7-yl}-phenyl)-methanesulfonamide] | < 100 | < 100 |  | 
20 | COc1ccc(Cl)cc1-c1ccc2cnc(Nc3ccc4c(c3)CC(=O)N4C)nn12 [Example 360, 5-[7-(5-Chloro-2-methoxy-phenyl)-pyrrolo[2,1-f][1,2,4]triazin-2-ylamino]-1-methyl-1,3-dihydro-indol-2-one] | 100 to 1000 | < 100 |  | 
21 | COc1cc(N2CCN(C)CC2)ccc1Nc1ncc2ccc(-c3cc(S(=O)(=O)N(C)C)ccc3C)n2n1 [Example 75, 3-{2-[2-Methoxy-4-(4-methyl-piperazin-1-yl)-phenylamino]-pyrrolo[2,1-f][1,2,4]triazin-7-yl}-4,N,N-trimethyl-benzenesulfonamide] | 100 to 1000 | 100 to 1000 |  | 
22 | COc1cc(C2CCN(CC(=O)N3CCNCC3)CC2)ccc1Nc1ncc2ccc(-c3ccccc3OC)n2n1 [Example 1276, 2-(4-{3-Methoxy-4-[7-(2-methoxy-phenyl)-pyrrolo[2,1-f][1,2,4]triazin-2-ylamino]-phenyl}-piperidin-1-yl)-1-piperazin-1-yl-ethanone] |  |  | < 100 | 100 to 1000
23 | CS(=O)(=O)c1cccc(-c2ccc3cnc(Nc4ccc(Cl)c(OC[C@H]5CCCN5)c4)nn23)c1 [Example 1021, [4-Chloro-3-((R)-1-pyrrolidin-2-ylmethoxy)-phenyl]-[7-(3-methanesulfonyl-phenyl)-pyrrolo[2,1-f][1,2,4]triazin-2-yl]-amine] |  |  | 1000 to 10000 | < 100
24 | CC(=O)Nc1cccc(Nc2ncc3ccc(-c4cccc(NS(C)(=O)=O)c4)n3n2)c1 [Example 1363, N-{3-[7-(3-Methanesulfonylamino-phenyl)-pyrrolo[2,1-f][1,2,4]triazin-2-ylamino]-phenyl}-acetamide] |  |  | 1000 to 10000 | < 100
25 | COc1cccc(Nc2ncc3ccc(-c4ccccc4OC)n3n2)c1 [Example 145, (3-Methoxy-phenyl)-[7-(2-methoxy-phenyl)-pyrrolo[2,1-f][1,2,4]triazin-2-yl]-amine] | 1000 to 10000 | < 100 |  | 
26 | CN(c1ccccc1-c1ccc2cnc(Nc3ccc(=O)[nH]c3)nn12)S(C)(=O)=O [Example 596, N-Methyl-N-{2-[2-(6-oxo-1,6-dihydro-pyridin-3-ylamino)-pyrrolo[2,1-f][1,2,4]triazin-7-yl]-phenyl}-methanesulfonamide] |  |  | 1000 to 10000 | < 100
27 | O=C(NCCCN1CCCC1)c1ccc(-c2ccc3cnc(Nc4ccc(N5CCOCC5)cc4)nn23)cc1 [Example 54, 4-[2-(4-Morpholin-4-yl-phenylamino)-pyrrolo[2,1-f][1,2,4]triazin-7-yl]-N-(3-pyrrolidin-1-yl-propyl)-benzamide] | 100 to 1000 | < 100 |  | 
28 | COc1ccccc1-c1ccc2cnc(Nc3ccc(N4CCC(CN5CCN(C)CC5)CC4)cc3)nn12 [Example 451, [7-(2-Methoxy-phenyl)-pyrrolo[2,1-f][1,2,4]triazin-2-yl]-{4-[4-(4-methyl-piperazin-1-ylmethyl)-piperidin-1-yl]-phenyl}-amine] | < 100 | < 100 |  | 
29 | COc1cc([C@H]2CC[C@H](N3CCOCC3)CC2)ccc1Nc1ncc2ccc(-c3ccccc3OC)n2n1 [Example 1247, N-{2-methoxy-4-[trans-4-(morpholin-4-yl)cyclohexyl]phenyl}-7-(2-methoxyphenyl)pyrrolo[2,1-f][1,2,4]triazin-2-amine] |  |  | < 100 | 100 to 1000
